Here are results for 1 compound from patent US7169800B2, “Imidazole compositions useful as inhibitors of protein kinases” (Vertex Pharmaceuticals Incorporated, priority 2003, dated 2007).

What all share (type): biochemical
For experiment [1], the target named is c-Met (Homo sapiens, UniProt P08581). The experiment in a line: Ki determination for the inhibition of c-Met (coupled enzyme system). Particulars: 200 μM ATP, 10 μM polyGluTyr, 80 nM c-Met, 30° C. The procedure: Compounds were screened for their ability to inhibit c-Met kinase activity using a standard coupled enzyme system (Fox et al., Protein Sci. 1998, 7, 2249). Reactions were carried out in a solution containing 100 mM HEPES (pH 7.5), 10 mM MgCl2, 25 mM NaCl, 300 μM NADH, 1 mM DTT, and 1.5% DMSO. Final substrate concentrations in the assay were 200 μM ATP (Sigma Chemicals, St Louis, Mo.) and 10 μM polyGluTyr (Sigma Chemical Company, St. Louis). Reactions were carried out at 30° C. and 80 nM c-Met. Final concentrations of the components of the coupled enzyme system were 2.5 mM phosphoenolpyruvate, 300 μM NADH, 30 μg/ml pyruvate kinase and 10 μg/ml lactate dehydrogenase.
An assay stock buffer solution was prepared containing all of the reagents listed above with the exception of ATP and a test compound of the present invention. The assay stock buffer solution (175 μl) was incubated in a 96 well plate with 5 μl of the test compound of the present invention at final concentrations spanning 0.006 μM to 12.5 μM at 30° C. for 10 minutes. […] Rates of reaction were obtained using a Molecular Devices Spectramax plate reader (Sunnyvale, Calif.) over 10 minutes at 30° C. The Ki values were determined from the rate data as a function of inhibitor concentration.

The target of experiment [2] is T1, JAK3 (Homo sapiens, UniProt P52333).
T1 sequence (P52333 1-1124): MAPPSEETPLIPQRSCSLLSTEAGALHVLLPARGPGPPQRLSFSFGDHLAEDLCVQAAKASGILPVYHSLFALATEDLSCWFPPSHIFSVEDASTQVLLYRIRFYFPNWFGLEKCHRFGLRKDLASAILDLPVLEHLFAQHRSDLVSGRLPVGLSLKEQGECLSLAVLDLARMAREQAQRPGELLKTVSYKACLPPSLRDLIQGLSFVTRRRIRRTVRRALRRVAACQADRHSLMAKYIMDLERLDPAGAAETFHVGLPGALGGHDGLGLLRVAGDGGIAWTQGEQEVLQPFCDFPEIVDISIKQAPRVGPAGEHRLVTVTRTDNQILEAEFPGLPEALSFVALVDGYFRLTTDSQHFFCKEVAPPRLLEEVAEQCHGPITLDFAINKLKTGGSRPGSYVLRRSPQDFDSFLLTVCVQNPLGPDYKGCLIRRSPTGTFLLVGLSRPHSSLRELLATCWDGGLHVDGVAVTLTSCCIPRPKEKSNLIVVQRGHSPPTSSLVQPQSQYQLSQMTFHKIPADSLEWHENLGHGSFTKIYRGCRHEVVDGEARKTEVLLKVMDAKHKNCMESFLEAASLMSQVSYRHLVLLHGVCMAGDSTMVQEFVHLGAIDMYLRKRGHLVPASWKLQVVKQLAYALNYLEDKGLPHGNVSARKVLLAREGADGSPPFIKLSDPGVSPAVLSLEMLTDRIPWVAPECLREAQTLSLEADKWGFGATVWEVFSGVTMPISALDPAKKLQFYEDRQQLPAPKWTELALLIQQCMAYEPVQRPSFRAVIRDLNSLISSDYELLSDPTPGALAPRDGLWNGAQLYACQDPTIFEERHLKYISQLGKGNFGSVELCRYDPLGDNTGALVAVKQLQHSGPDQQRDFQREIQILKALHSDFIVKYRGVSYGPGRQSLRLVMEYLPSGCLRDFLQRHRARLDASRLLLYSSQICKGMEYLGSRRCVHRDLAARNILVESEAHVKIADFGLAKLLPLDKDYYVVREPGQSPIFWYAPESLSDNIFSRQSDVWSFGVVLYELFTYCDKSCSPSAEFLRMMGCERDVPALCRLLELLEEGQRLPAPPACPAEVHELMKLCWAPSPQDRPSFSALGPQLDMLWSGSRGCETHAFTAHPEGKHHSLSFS
The experiment in a line: JAK3 inhibition assay (33P incorporation). Particulars: 5 uM ATP, 1 uM poly(Glu)4Tyr, 1 nM JAK3, 25C. The procedure: • kinase buffer: (100 mM HEPES pH 7.4; 1 mM DTT; 10 mM MgCl2; 25 mM NaCl; and 0.01% BSA) • 1 nM JAK3 (enzyme) • 1 uM poly(Glu)4Tyr (substrate) • 5 uM ATP (substrate, 200 uCi/umole ATP) Procedure
To each well of a 96 well polycarbonate plate is added 1.5 ul of a candidate JAK3 inhibitor along with 50 ul of kinase buffer containing 2 uM poly(Glu)4Tyr and 10 uM ATP. This is then mixed and 50 ul of kinase buffer containing 2 nM JAK3 enzyme is added to start the reaction. After 20 minutes at room temperature (25C), the reaction is stopped with 50 ul of 20% trichloroacetic acid (TCA) that also contains 0.4 mM ATP. The entire content of each well is then transferred to a 96 well glass fiber filter plate using a TomTek Cell Harvester. After washing, 60 ul of scintillation fluid is added and 33P incorporation detected on a Perkin Elmer TopCount.

In experiment [3] the target is KDR (Homo sapiens, UniProt P35968). Kind of experiment: KDR enzyme assay (coupled enzyme assay). The settings on record: 300 μM ATP, 10 μM poly E4Y, 30 nM KDR, 37° C.; read-out: Ki value, inhibition of KDR. The procedure: Compounds were screened for their ability to inhibit KDR using a standard coupled enzyme assay (Fox et al., Protein Sci., (1998) 7, 2249). Assays were carried out in a mixture of 200 mM HEPES 7.5, 10 mM MgCl2, 25 mM NaCl, 1 mM DTT and 1.5% DMSO. Final substrate concentrations in the assay were 300 μM ATP (Sigma Chemicals) and 10 μM poly E4Y (Sigma). Assays were carried out at 37° C. and 30 nM KDR. Final concentrations of the components of the coupled enzyme system were 2.5 mM phosphoenolpyruvate, 200 μM NADH, 30 μg/ML pyruvate kinase and 10 μg/ml lactate dehydrogenase.
An assay stock buffer solution was prepared containing all of the reagents listed above, with the exception of ATP and the test compound of interest. 177 μl of the stock solution was placed in a 96 well plate followed by addition of 3 μl of 2 mM DMSO stock containing the test compound (final compound concentration 30 μM). The plate was preincubated for about 10 minutes at 37° C. and the reaction initiated by addition of 20 μl of ATP (final concentration 300 μM). Rates of reaction were obtained using a Molecular Devices plate reader (Sunnyvale, Calif.) over a 5 minute read time at 37° C.

Sequence of KDR (P35968 20-1356): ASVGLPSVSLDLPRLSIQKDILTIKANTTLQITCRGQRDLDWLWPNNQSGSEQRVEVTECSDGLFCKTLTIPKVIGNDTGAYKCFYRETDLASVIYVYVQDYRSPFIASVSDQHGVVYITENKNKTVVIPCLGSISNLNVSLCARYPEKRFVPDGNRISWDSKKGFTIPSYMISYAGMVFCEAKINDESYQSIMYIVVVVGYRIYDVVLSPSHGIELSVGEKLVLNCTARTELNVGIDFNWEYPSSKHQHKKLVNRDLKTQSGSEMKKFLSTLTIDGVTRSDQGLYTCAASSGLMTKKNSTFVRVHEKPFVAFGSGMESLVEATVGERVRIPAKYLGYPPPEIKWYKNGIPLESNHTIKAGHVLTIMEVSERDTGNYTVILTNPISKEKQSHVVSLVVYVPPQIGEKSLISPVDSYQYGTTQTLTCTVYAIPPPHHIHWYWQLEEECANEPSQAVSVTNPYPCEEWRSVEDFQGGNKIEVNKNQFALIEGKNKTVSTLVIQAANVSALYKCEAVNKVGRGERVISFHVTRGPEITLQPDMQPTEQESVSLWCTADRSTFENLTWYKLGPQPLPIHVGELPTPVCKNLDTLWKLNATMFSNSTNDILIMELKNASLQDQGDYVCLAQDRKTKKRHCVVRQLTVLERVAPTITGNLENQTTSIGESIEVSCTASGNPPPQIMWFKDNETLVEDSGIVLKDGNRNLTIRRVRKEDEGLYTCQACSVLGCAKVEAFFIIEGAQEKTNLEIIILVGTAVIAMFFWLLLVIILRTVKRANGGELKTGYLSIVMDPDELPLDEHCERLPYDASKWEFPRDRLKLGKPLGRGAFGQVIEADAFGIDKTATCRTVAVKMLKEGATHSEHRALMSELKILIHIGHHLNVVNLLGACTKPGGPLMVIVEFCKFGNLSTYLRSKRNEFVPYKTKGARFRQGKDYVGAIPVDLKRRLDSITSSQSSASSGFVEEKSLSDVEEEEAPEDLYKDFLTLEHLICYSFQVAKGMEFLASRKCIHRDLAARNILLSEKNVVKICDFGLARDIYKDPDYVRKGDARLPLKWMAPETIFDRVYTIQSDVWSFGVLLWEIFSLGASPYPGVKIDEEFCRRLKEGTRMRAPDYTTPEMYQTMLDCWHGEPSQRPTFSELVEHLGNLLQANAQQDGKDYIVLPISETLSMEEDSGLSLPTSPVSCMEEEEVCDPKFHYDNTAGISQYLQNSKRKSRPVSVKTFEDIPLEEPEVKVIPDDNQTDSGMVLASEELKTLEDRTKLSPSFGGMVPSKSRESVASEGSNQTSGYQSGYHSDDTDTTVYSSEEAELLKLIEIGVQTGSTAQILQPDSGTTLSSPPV
Sequence of c-Met (P08581 25-1390): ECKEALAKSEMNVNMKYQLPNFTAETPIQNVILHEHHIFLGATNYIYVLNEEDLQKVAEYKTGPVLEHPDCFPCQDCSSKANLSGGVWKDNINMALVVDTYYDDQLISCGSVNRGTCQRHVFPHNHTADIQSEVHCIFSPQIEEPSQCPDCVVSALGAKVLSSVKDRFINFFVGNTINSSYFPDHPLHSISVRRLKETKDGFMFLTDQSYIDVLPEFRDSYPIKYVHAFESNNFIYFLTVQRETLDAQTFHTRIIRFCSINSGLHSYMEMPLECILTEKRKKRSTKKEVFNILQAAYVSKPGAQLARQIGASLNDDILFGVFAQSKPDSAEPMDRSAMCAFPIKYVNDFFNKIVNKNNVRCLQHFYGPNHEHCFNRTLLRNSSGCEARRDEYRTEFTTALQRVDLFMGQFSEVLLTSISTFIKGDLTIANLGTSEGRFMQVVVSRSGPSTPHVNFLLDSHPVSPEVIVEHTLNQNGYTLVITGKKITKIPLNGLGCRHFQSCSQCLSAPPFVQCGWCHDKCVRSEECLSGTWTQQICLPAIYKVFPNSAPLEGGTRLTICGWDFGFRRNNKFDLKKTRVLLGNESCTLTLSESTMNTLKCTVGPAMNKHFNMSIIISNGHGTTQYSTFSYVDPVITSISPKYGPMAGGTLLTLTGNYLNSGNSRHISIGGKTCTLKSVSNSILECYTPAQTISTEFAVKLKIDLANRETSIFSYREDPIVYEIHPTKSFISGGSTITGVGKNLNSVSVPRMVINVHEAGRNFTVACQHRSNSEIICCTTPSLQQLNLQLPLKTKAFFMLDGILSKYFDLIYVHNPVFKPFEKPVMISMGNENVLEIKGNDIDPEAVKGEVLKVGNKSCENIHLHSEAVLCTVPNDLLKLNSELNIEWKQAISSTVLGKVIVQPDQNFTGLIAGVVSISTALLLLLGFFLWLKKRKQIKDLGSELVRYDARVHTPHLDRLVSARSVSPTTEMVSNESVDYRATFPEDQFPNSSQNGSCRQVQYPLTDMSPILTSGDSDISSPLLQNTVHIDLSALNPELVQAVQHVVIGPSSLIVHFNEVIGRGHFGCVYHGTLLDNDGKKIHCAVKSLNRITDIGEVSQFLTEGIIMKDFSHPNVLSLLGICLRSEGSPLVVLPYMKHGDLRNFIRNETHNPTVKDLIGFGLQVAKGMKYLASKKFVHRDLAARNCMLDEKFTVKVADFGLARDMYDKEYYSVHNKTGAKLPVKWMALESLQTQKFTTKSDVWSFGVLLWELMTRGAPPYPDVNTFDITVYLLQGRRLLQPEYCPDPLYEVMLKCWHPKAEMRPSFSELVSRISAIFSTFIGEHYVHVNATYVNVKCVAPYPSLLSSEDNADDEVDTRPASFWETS

As usually defined, the Ki is the equilibrium dissociation constant of an inhibitor or competing ligand from its target. Consider `O=C(c1nc(-c2oncc2-c2cccc(F)c2F)c[nH]1)N1CC=CC1` [Compound I-38, {4-[4-(2,3-Difluoro-phenyl)-isoxazol-5-yl]-1H-imidazol-2-yl}-(2,5-dihydro-pyrrol-1-yl)-methanone], for which the results for the Ki in experiment [1], in experiment [2] and in experiment [3] were less than 1000 nM, less than 1000 nM and less than 5000 nM, respectively.
